# Test results reported in patent publication US9695155B2, “Herbicidal substituted pyrimidinyloxy benzene compounds” (E. I. DU PONT DE NEMOURS AND COMPANY, priority 2013, dated 2017).
# What was measured:
# blackgrass [1] = test: Test C preemergence; assay type: in vivo, Alopecurus myosuroides; settings: for Blackgrass plant response rating: preemergence; for Plant response rating, Blackgrass: Preemergence, 62 g ai/ha, scale 0 to 100, 0 no effect, 100 complete control
# Method in brief: (§1)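 Visual ratings on a 0–100 scale (100 = complete control) were made versus untreated controls after 13–15 greenhouse days. Chemicals in a surfactant-containing non-phytotoxic solvent were applied either preemergence to seeds in loam–sand soil or postemergence to 1- to 4-leaf plants 2–18 cm tall.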
# morningglory = test: Test A postemergence; assay type: in vivo, Ipomoea spp.; settings: 0 to 100 scale where 0 is no effect and 100 is complete control; for Morningglory plant response rating: 125 g ai/ha; for Plant response rating, Morningglory: 500 g ai/ha
# Method in brief: (§2)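 Pre- and postemergence greenhouse screen. Soil: loam + sand. Spray carrier: solvent mixture, non-phytotoxic, with surfactant. Post timing at 1–2 leaves, height 2–10 cm. Readout: visual injury on a 0–100 scale roughly 10 days after application, untreated plants as reference.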
# barnyardgrass [2] = test: Test C preemergence; assay type: in vivo, Echinochloa crus-galli; settings: for Barnyardgrass plant response rating: preemergence; for Plant response rating, Barnyardgrass: Preemergence, 62 g ai/ha, scale 0 to 100, 0 no effect, 100 complete control
# Method in brief: as §1
# wheat = test: Test A postemergence; assay type: in vivo, Triticum aestivum; settings: 0 to 100 scale where 0 is no effect and 100 is complete control; for Wheat plant response rating: 125 g ai/ha; for Plant response rating, Wheat: 500 g ai/ha
# Method in brief: as §2
# blackgrass [3] = test: Test C postemergence; assay type: in vivo, Alopecurus myosuroides; settings: for Blackgrass plant response rating: 31 g ai/ha; for Blackgrass plant response rating / Plant response rating, Blackgrass: scale 0 to 100 (0 no effect, 100 complete control)
# Method in brief: as §1
# wheat, winter = test: Test C preemergence; assay type: in vivo, Triticum aestivum; settings: for Wheat plant response rating: preemergence; for Plant response rating, Wheat: Preemergence, 62 g ai/ha, scale 0 to 100, 0 no effect, 100 complete control
# Method in brief: as §1
# giant foxtail = test: Test C postemergence; assay type: in vivo, Setaria faberii; settings: for Foxtail, Giant plant response rating: 31 g ai/ha; for Foxtail, Giant plant response rating / Plant response rating, Foxtail, Giant: scale 0 to 100 (0 no effect, 100 complete control)
# Method in brief: as §1
# ragweed = test: Test C postemergence; assay type: in vivo, Ambrosia elatior; settings: for Ragweed plant response rating: 31 g ai/ha; for Ragweed plant response rating / Plant response rating, Ragweed: scale 0 to 100 (0 no effect, 100 complete control)
# Method in brief: as §1
# soybean [4] = test: Test C preemergence; assay type: in vivo, Glycine max; settings: for Soybean plant response rating: preemergence; for Plant response rating, Soybean: Preemergence, 62 g ai/ha, scale 0 to 100, 0 no effect, 100 complete control
# Method in brief: as §1
# large (Lg) crabgrass = test: Test C preemergence; assay type: in vivo, Digitaria sanguinalis; settings: for Crabgrass, Large plant response rating: preemergence; for Plant response rating, Crabgrass, Large: Preemergence, 62 g ai/ha, scale 0 to 100, 0 no effect, 100 complete control
# Method in brief: as §1
# barnyardgrass [5] = test: Test A preemergence; assay type: in vivo, Echinochloa crus-galli; settings: for Barnyardgrass plant response rating (0 to 100 scale, 0 is no effect, 100 is complete control): 125 g ai/ha; for Barnyardgrass plant response rating: 500 g ai/ha, 0 to 100 scale where 0 is no effect and 100 is complete control
# Method in brief: as §2
# oilseed rape = test: Test C postemergence; assay type: in vivo, Brassica napus; settings: for Oilseed Rape plant response rating: 31 g ai/ha; for Oilseed Rape plant response rating / Plant response rating, Oilseed Rape: scale 0 to 100 (0 no effect, 100 complete control)
# Method in brief: as §1
# soybean [6] = test: Test C postemergence; assay type: in vivo, Glycine max; settings: for Soybean plant response rating: 31 g ai/ha; for Soybean plant response rating / Plant response rating, Soybean: scale 0 to 100 (0 no effect, 100 complete control)
# Method in brief: as §1
# rice = test: Test B flooded paddy test; assay type: in vivo, Oryza sativa; settings: Flood, 250 g ai/ha; 0 to 100 scale where 0 is no effect and 100 is complete control
# Method in brief: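 Compound added straight to paddy water, with pots kept flooded 3 cm above soil, on plants grown to the 2-leaf stage. Visual scoring 0-100 (100 = complete control) against untreated controls after 13 to 15 greenhouse days.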
# [7] = 125 g ai/ha, scale 0 (no effect) to 100 (complete control)
# [8] = 250 g ai/ha, scale 0 (no effect) to 100 (complete control)
# [9] = postemergence, visual rating, 13 to 15 days
# [10] = 125 g ai/ha, postemergence, visual rating
# [11] = Postemergence, 62 g ai/ha, 13 to 15 days
# [12] = 16 g ai/ha, scale 0 to 100 (0 no effect, 100 complete control)
# [13] = 16 g ai/ha, postemergence, 0 is no effect, 100 is complete control
smiles,measurement,setting,value
N#Cc1cccc(Oc2ncc(Cl)cn2)c1-n1cc(I)cn1 [Compound 204],Blackgrass plant response rating,blackgrass [1]; [7],90
same,Blackgrass plant response rating,blackgrass [1]; [8],95
same,"Plant response rating, Blackgrass",blackgrass [1],80
same,Morningglory plant response rating,morningglory,80
same,"Plant response rating, Morningglory",morningglory,100
same,Barnyardgrass plant response rating,barnyardgrass [2]; [7],100
same,Barnyardgrass plant response rating,barnyardgrass [2]; [8],100
same,"Plant response rating, Barnyardgrass",barnyardgrass [2],95
same,Wheat plant response rating,wheat,40
same,"Plant response rating, Wheat",wheat,70
same,Blackgrass plant response rating,blackgrass [3]; [9],5
same,"Plant response rating, Blackgrass",blackgrass [3]; [10],10
same,"Plant response rating (0 to 100), Blackgrass","blackgrass [3]; 250 g ai/ha, postemergence",25
same,"Plant response rating, Blackgrass",blackgrass [3]; [11],5
same,Wheat plant response rating,"wheat, winter; [7]",30
same,Wheat plant response rating,"wheat, winter; [8]",60
same,"Plant response rating, Wheat","wheat, winter",5
same,"Foxtail, Giant plant response rating",giant foxtail; [9],5
same,"Plant response rating, Foxtail, Giant",giant foxtail; [10],10
same,"Plant response rating (0 to 100), Foxtail, Giant","giant foxtail; 250 g ai/ha, postemergence",90
same,"Plant response rating, Foxtail, Giant",giant foxtail; [11],5
same,Ragweed plant response rating,ragweed; [9],25
same,"Plant response rating, Ragweed",ragweed; [10],35
same,"Plant response rating (0 to 100), Ragweed","ragweed; 250 g ai/ha, postemergence",75
same,"Plant response rating, Ragweed",ragweed; [11],40
same,Soybean plant response rating,soybean [4]; [7],65
same,Soybean plant response rating,soybean [4]; [8],80
same,"Plant response rating, Soybean",soybean [4],35
same,"Crabgrass, Large plant response rating",large (Lg) crabgrass; [7],100
same,"Crabgrass, Large plant response rating",large (Lg) crabgrass; [8],100
same,"Plant response rating, Crabgrass, Large",large (Lg) crabgrass,100
same,"Barnyardgrass plant response rating (0 to 100 scale, 0 is no effect, 100 is complete control)",barnyardgrass [5],70
same,Barnyardgrass plant response rating,barnyardgrass [5],100
same,Oilseed Rape plant response rating,oilseed rape; [9],40
same,"Plant response rating, Oilseed Rape",oilseed rape; [10],85
same,"Plant response rating (0 to 100), Oilseed Rape","oilseed rape; 250 g ai/ha, postemergence",75
same,"Plant response rating, Oilseed Rape",oilseed rape; [11],70
same,Soybean plant response rating,soybean [6]; [9],70
same,"Plant response rating, Soybean",soybean [6]; [10],95
same,"Plant response rating (0 to 100), Soybean","soybean [6]; 250 g ai/ha, postemergence",95
same,"Plant response rating, Soybean",soybean [6]; [11],95
same,"Plant response rating, Rice",rice,20
N#Cc1cnn(-c2c(Oc3ncc(Cl)cn3)cccc2C(F)F)c1 [Compound 236],Blackgrass plant response rating,blackgrass [1]; [12],5
same,Blackgrass plant response rating,blackgrass [1]; [7],90
same,"Plant response rating, Blackgrass",blackgrass [1],90
same,Morningglory plant response rating,morningglory,80
same,"Plant response rating, Morningglory",morningglory,100
same,Barnyardgrass plant response rating,barnyardgrass [2]; [12],10
same,Barnyardgrass plant response rating,barnyardgrass [2]; [7],100
same,"Plant response rating, Barnyardgrass",barnyardgrass [2],98
same,Wheat plant response rating,wheat,50
same,"Plant response rating, Wheat",wheat,100
same,"Plant response rating (0 to 100), Blackgrass",blackgrass [3]; [13],0
same,Blackgrass plant response rating,blackgrass [3]; [9],5
same,"Plant response rating, Blackgrass",blackgrass [3]; [10],20
same,"Plant response rating, Blackgrass",blackgrass [3]; [11],5
same,Wheat plant response rating,"wheat, winter; [12]",0
same,Wheat plant response rating,"wheat, winter; [7]",60
same,"Plant response rating, Wheat","wheat, winter",0
same,"Plant response rating (0 to 100), Foxtail, Giant",giant foxtail; [13],5
same,"Foxtail, Giant plant response rating",giant foxtail; [9],50
same,"Plant response rating, Foxtail, Giant",giant foxtail; [10],15
same,"Plant response rating, Foxtail, Giant",giant foxtail; [11],15
same,"Plant response rating (0 to 100), Ragweed",ragweed; [13],10
same,Ragweed plant response rating,ragweed; [9],15
same,"Plant response rating, Ragweed",ragweed; [10],75
same,"Plant response rating, Ragweed",ragweed; [11],40
same,Soybean plant response rating,soybean [4]; [12],35
same,Soybean plant response rating,soybean [4]; [7],95
same,"Plant response rating, Soybean",soybean [4],90
same,"Crabgrass, Large plant response rating",large (Lg) crabgrass; [12],90
same,"Crabgrass, Large plant response rating",large (Lg) crabgrass; [7],100
same,"Plant response rating, Crabgrass, Large",large (Lg) crabgrass,100
same,"Barnyardgrass plant response rating (0 to 100 scale, 0 is no effect, 100 is complete control)",barnyardgrass [5],100
same,Barnyardgrass plant response rating,barnyardgrass [5],100
same,"Plant response rating (0 to 100), Oilseed Rape",oilseed rape; [13],30
same,Oilseed Rape plant response rating,oilseed rape; [9],10
same,"Plant response rating, Oilseed Rape",oilseed rape; [10],65
same,"Plant response rating, Oilseed Rape",oilseed rape; [11],30
same,"Plant response rating (0 to 100), Soybean",soybean [6]; [13],60
same,Soybean plant response rating,soybean [6]; [9],75
same,"Plant response rating, Soybean",soybean [6]; [10],95
same,"Plant response rating, Soybean",soybean [6]; [11],85
same,"Plant response rating, Rice",rice,0
